Source: patent EP0548798A1, “Antiviral agent” (SANWA KAGAKU KENKYUSHO CO., LTD., priority 1991, dated 1993)
Values after ≈ are worked out from the molar mass of the structure shown. Like-named read-outs stand apart in the source and are kept apart here.

What was measured:
[1] = tested on: GMK cells; experiment: Cytotoxicity observed microscopically in GMK cells (Test Example 1); assay type: cell-based, green monkey; conditions: GMK cells, in parentheses
Method: (§1) Confluent GMK cells (derived from green monkey kidney) in 96-well plates were infected with HSV-1 (Miyama strain) in the presence of various concentrations of test compounds. […] The virus titer (TCID₅₀) was determined from CPE of virus infected culture. Antivirus effects of test compounds were calculated from TCID₅₀ values of test compound treated and control cultures and represented by ΔTCID₅₀(log₁₀). Test compounds were dissolved in MEM medium, ethanol or DMSO to 10 mg/ml, and diluted with MEM medium supplemented with 1% fetal bovineserum.
In Table 1, parentheses indicate the cytotoxicity of these compounds. (-) and (±) indicate no cytotoxicity and slight cytotoxicity, respectively.

[2] = tested on: HIV; experiment: Inhibition of HIV-induced cytopathogenicity in MT-4 cells; assay type: cell-based
Method: MT-4 cells (lymphoma derived from human T cell leukemia) in 96-well plate were infected with […] in the presence of various concentrations of test compounds. After incubation, inhibitory effect of HIV-induced CPE by the test compounds and cytotoxicity were microscopically observed. […]
Further, since the compounds of the present invention have a chemical structure different from the conventional antiviral substances, it is useful for the prevention or treatment of the infectious diseases caused by viruses resistant to the conventional antiviral substances.

[3] = tested on: HSV-1 (Miyama strain); experiment: Anti HSV-1 activity in vivo, intraperitoneally infected mice; set-up: species or system Male BALB/c mice; conditions: 322 PFU (10LD₅₀) HSV-1
Method: Male BALB/c mice (5 weeks of age) were intraperitoneally infected with 322 PFU (plaque forming unit, 10LD₅₀) of HSV-1 (Miyama strain). Twenty one days later, survival ratio and mean survival days were evaluated. Test compounds were dispersed in 5% arabic gum/physiological saline, and intraperitoneally administered at 10 mg and 20 mg/kg. Treatment began just after virus inoculation and continued for 5 days.

[4] = tested on: herpes simplex virus type 1 (Miyama strain); experiment: Antiviral activity against HSV-1 in vitro, inhibition of virus-induced CPE in GMK cells (Test Example 1); assay type: cell-based, HSV-1 (Miyama strain); conditions: Human alphaherpesvirus 1, GMK cells, 1% fetal bovine serum, read-out: Antiviral Activity (ΔTCID₅₀(log₁₀))
Method: as §1

[5] = tested on: MT-4 cells; experiment: Minimum cytotoxic concentration in MT-4 cells; assay type: cell-based, human
Method: MT-4 cells (lymphoma derived from human T cell leukemia) in 96-well plate were infected with […] in the presence of various concentrations of test compounds. After incubation, inhibitory effect of HIV-induced CPE by the test compounds and cytotoxicity were microscopically observed. […] TABLE 6 In Table 6, parentheses indicate the minimum cytotoxic concentration of test compounds.

[6] = tested on: GMK cells; experiment: Cytotoxicity observed microscopically in GMK cells (Test Example 2); assay type: cell-based, green monkey; set-up: key: -: no cytotoxicity; ±: slight cytotoxicity; +: cytotoxicity with observable antiviral effect; conditions: in parentheses
Method: (§2) Confluent GMK cells (derived from green monkey kidney) in 96-well plates were infected with HSV-1 (Miyama strain) in the presence of various concentrations of test compounds. After incubation, virus-induced cytopathic effect (CPE), inhibitory effect of CPE by the test compound and cytotoxicity were microscopically observed. The virus titer (TCID₅₀) was determined from CPE of virus infected culture. Ancivirus effects of test compounds were calculated from TCID₅₀ values of test compound treated and control cultures and represented by ΔTCID₅₀(log₁₀). Test compounds were dissolved in MEM medium, ethanol or DMSO to 10 mg/ml, and diluted with MEM medium supplemented with 0.5% fetal bovine serum.
In Table 4, parentheses indicate the cytotoxicity of these compounds. (-), (±) and (+) indicate no cytotoxicity, slight cytotoxicity and cytotoxicity with observable antiviral effect, respectively.

[7] = tested on: herpes simplex virus type 1 (Miyama strain); experiment: Antiviral activity against HSV-1 in vitro, inhibition of virus-induced CPE in GMK cells (Test Example 2); assay type: cell-based, HSV-1 (Miyama strain); conditions: 0.5% fetal bovine serum
Method: as §2

[8] = Human immunodeficiency virus 1, MT-4 cells, minimum inhibitory concentration, read-out: Anti-HIV Activity (MIC, µg/ml)
[9] = 10 mg/kg intraperitoneally for 5 days
[10] = 20 mg/kg intraperitoneally for 5 days
[11] = Human immunodeficiency virus 1, read-out: Anti-HIV Activity (MIC, µg/ml)

Row | Compound | cytotoxicity ([1]; 10 µg/ml) | MIC [2, 8] [µg/mL] | Mean Survival Days [3, 9] [days] | Survival Ratio at 21 days (%) [3, 9] [%] | Mean Survival Days [3, 10] [days] | Survival Ratio at 21 days (%) [3, 10] [%] | log reduction at 10 µg/mL [4] | minimum cytotoxic concentration ([5]; MT-4 cells, in parentheses) [µg/mL] | cytotoxicity ([1]; 5 µg/ml) | log reduction at 5 µg/mL ([4]; 5 µg/ml) | cytotoxicity ([6]; 5 µg/ml) | cytotoxicity ([6]; 10 µg/ml) | Antiviral Activity (ΔTCID₅₀(log₁₀)) ([7]; 5 µg/ml) [log₁₀] | Antiviral Activity (ΔTCID₅₀(log₁₀)) ([7]; 10 µg/ml) [log₁₀] | MIC [2, 11] [µg/mL] | minimum cytotoxic concentration [5] [µg/mL]
1 | CCCCC/C=C\C/C=C\CCCCCCCC(=O)N1CCN(c2ccccc2Cl)CC1 [Compound of Example 8, 1-(2-Chlorophenyl)-4-[(Z,Z)-9,12-octadecadienoyl]piperazine] | - | 16 (≈ 34.8 µM) | 13.7 ± 1.6 | 20 | 16.4 ± 2.0 | 40 | 2 | > 125 |  |  |  |  |  |  |  | 
2 | CCCCCCCC(=O)N1CCN(c2ccccc2Cl)CC1 [Compound of Example 9, 1-(2-Chlorophenyl)-4-octanoylpiperazine] | ± | > 125 | 14.2 ± 1.5 | 20 | 18.7 ± 1.8 | 60 | > 3 | > 250 | - | 0.83 |  |  |  |  |  | 
3 | COc1cc2c(=O)n(N3CCN(c4ccccc4C(F)(F)F)CC3)ncc2c(OC)c1OC [Compound of Example 19, 2-[4-(2-Trifluoromethylphenyl)-1-piperazinyl]-5,6,7-trimethoxy-1(2H)-phthalazinone] |  | 31 (≈ 66.7 µM) |  |  |  |  |  | > 125 |  |  | - | + | 1.17 | > 3.00 |  | 
4 | CC[C@@]12C=C(C(=O)OCCN3CCN(c4ccccc4OC)CC3)n3c4c(c5ccccc53)CCN(CCC1)[C@H]42 [Compound of Example 27, (3α,16α)-Eburunamenine-14-carboxylic acid 2-[4-(2-methoxyphenyl)piperazine-1-yl]ethyl ester] |  |  |  |  |  |  |  |  |  |  | - | ± | 1.00 | 3.00 | 8 (≈ 14.8 µM) | 63
5 | CC[C@@]12C=C(C(=O)OCCN3CCN(c4ccccc4Cl)CC3)n3c4c(c5ccccc53)CCN(CCC1)[C@H]42 [Compound of Example 28, (3α,16α)-Eburunamenine-14-carboxylic acid 2-[4-(2-chlorophenyl)piperazine-1-yl]ethyl ester] |  |  |  |  |  |  |  |  |  |  | - | + | 2.00 | 3.00 | 4 (≈ 7.34 µM) | 63
